Experiment [1] has as its system complement system. As to conditions: Br. J. Exp. Pathol. 33: 327 (1952); cited from earlier work.
Experiment [2] relates to hereditary angioneurotic edema. As to conditions: literature reports; cited from earlier work.
The test system of experiment [3] is late components of human complement (C3-C9). The experiment can be described thus: Test Code 035 (C3-C9 inhibitor), lysis of EAC 142. To be noted: serial twofold dilution assay; higher well number indicates higher activity. It is filed as biochemical.
Experiment [4] concerns the target T1, activated human C1 (Homo sapiens, UniProt P09871).
T1 sequence (P09871 16-437 limits assumed): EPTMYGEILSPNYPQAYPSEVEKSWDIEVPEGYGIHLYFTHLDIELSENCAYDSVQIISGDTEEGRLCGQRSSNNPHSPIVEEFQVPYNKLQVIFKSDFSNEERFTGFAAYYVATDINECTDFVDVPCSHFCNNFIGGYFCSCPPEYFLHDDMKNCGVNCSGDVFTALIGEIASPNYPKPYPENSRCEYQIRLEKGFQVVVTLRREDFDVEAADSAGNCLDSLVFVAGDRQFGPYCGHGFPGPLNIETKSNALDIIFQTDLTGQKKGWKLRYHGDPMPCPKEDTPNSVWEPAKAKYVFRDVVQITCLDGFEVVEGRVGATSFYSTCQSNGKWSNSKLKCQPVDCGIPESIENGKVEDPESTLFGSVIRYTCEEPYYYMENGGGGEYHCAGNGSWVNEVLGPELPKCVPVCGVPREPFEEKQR
T1 sequence (P09871 438-688 limits assumed): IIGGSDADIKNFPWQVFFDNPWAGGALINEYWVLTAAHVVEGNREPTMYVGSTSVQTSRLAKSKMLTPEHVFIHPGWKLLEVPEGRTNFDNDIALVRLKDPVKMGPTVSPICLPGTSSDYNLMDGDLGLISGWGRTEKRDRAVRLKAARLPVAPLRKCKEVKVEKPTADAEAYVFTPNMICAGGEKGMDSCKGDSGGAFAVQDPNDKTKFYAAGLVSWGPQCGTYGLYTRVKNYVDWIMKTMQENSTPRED
The experiment can be described thus: Test Code 026 (C1 inhibitor). In kind it is biochemical. To be noted: serial twofold dilution assay; higher well number indicates higher activity.

The subject of experiment [5] is complement activity of sera. The experiment can be described thus: Guinea Pig Intraperitoneal Test (GPIP). To be noted: Cavia porcellus, ip, 200 mg/kg i.p., capillary complement assay. In kind it is in vivo. As for the experimental part:
Percent inhibition is calculated by comparison with simultaneous controls.

The test system of experiment [6] is human serum. To be noted: in vitro and in vivo, judged by reduction in total hemolytic complement activity; cited from earlier work.
The mark [7] stands for this setting: blood 2 hours after injection, read-out: in vivo Activity Guinea Pig % Inhibition Intraperitoneal, 2 hours.
[8] abbreviates: blood 6 hours after injection, read-out: in vivo Activity Guinea Pig % Inhibition Intraperitoneal, 6 hours.
Setting [9] is: blood 24 hours after injection, read-out: in vivo Activity Guinea Pig % Inhibition Intraperitoneal, 24 hours.

Read-outs that look alike come from different tables or passages of the source.

For the compound `Nc1ccc2cc(S(=O)(=O)[O-])cc(O)c2c1N=Nc1ccc(NC(=O)Nc2ccc(N=Nc3c(N)ccc4cc(S(=O)(=O)[O-])cc(O)c34)c(S(=O)(=O)[O-])c2)cc1S(=O)(=O)[O-].[Na+].[Na+].[Na+].[Na+]` [chlorazol fast pink, 3,3'-ureylenebis-[6-(2-amino-8-hydroxy-6-sulfo-1-naphthylazo)benzenesulfonic acid], tetrasodium salt], the anticomplementary effect entry in experiment [1] is listed as “anticomplementary effect”.

`NCCCCCC(=O)O` [epsilon-aminocaproic acid]: the “success in the treatment of hereditary angioneurotic edema” value in experiment [2] was “used with success”.

In general, inhibition refers to the change of the read-out against control, counted positive when it falls. With `O=C(CCCC(=O)Nc1ccc(S[C@@H]2O[C@H](COS(=O)(=O)O)[C@@H](O[C@H]3O[C@H](COS(=O)(=O)O)[C@@H](OS(=O)(=O)O)[C@H](OS(=O)(=O)O)[C@H]3OS(=O)(=O)O)[C@H](OS(=O)(=O)O)[C@H]2OS(=O)(=O)O)cc1)Nc1ccc(S[C@@H]2O[C@H](COS(=O)(=O)O)[C@@H](O[C@H]3O[C@H](COS(=O)(=O)O)[C@@H](OS(=O)(=O)O)[C@H](OS(=O)(=O)O)[C@H]3OS(=O)(=O)O)[C@H](OS(=O)(=O)O)[C@H]2OS(=O)(=O)O)cc1.[Na].[Na].[Na].[Na].[Na].[Na].[Na].[Na].[Na].[Na].[Na].[Na].[Na].[Na]` [tetradecasodium N,N'-bis[4-[2,3,6-tri-O-sulfo-4-O-(2,3,4,6-tetra-O-sulfo-α-D-glucopyranosyl)-β-D-glucopyranosylthio]phenyl]pentanediamide], the “in vitro Activity C-Late 035 Wells” value in experiment [3] is reported as 1.5 Wells. Further, the “in vitro Activity Cl 026 Wells” value in experiment [4] was 9.9 Wells. The inhibition at 200 mg/kg in experiment [5] (setting [7]) was 90%; in experiment [5] (setting [8]), 88%; in experiment [5] (setting [9]), 44%.

Regarding `O=C(CC(=O)Nc1ccc(S[C@@H]2O[C@H](COS(=O)(=O)O)[C@@H](O[C@H]3O[C@H](COS(=O)(=O)O)[C@@H](OS(=O)(=O)O)[C@H](OS(=O)(=O)O)[C@H]3OS(=O)(=O)O)[C@H](OS(=O)(=O)O)[C@H]2OS(=O)(=O)O)cc1)Nc1ccc(S[C@@H]2O[C@H](COS(=O)(=O)O)[C@@H](O[C@H]3O[C@H](COS(=O)(=O)O)[C@@H](OS(=O)(=O)O)[C@H](OS(=O)(=O)O)[C@H]3OS(=O)(=O)O)[C@H](OS(=O)(=O)O)[C@H]2OS(=O)(=O)O)cc1.[Na].[Na].[Na].[Na].[Na].[Na].[Na].[Na].[Na].[Na].[Na].[Na].[Na].[Na]` [tetradecasodium N,N'-bis[4-[2,3,6-tri-O-sulfo-4-O-(2,3,4,6-tetra-O-sulfo-α-D-glucopyranosyl)-β-D-glucopyranosylthio]phenyl]propanediamide], the “in vitro Activity C-Late 035 Wells” value in experiment [3] is listed as 1.6 Wells. In addition, the “in vitro Activity Cl 026 Wells” value in experiment [4] is 9.9 Wells. In addition, the results for the inhibition at 200 mg/kg in experiment [5] (setting [7]), in experiment [5] (setting [8]) and in experiment [5] (setting [9]) were 90%, 90% and 47%, respectively.

`NC[C@H]1CC[C@H](C(=O)O)CC1` [tranexamic acid]: the “success in the treatment of hereditary angioneurotic edema” value in experiment [2] was “used with success”.

Take heparin: the anticomplementary effect result in experiment [1] is given as “anticomplementary effect”.

On to pentosan-polysulfoester, for which the “anticomplementary activity on human serum” value in experiment [6] was “anticomplementary activity”.

The values above are taken from US4399126A, “Modulators of the complement system” (American Cyanamid Company, priority 1982, dated 1983).
